Columns and labels:
mice = test: Anti-arrhythmic activity in mice (method of Lawson), intraperitoneal injection; format: in vivo; conditions: Mus musculus, ip
Description: 2. Anti-arrhythmic activity
The anti-arrhythmic activity of each of the compounds was determined in accordance with the method of J. W. Lawson, Journal Pharmacol. Exp. Ther., 160, 22 (1967).

guinea pigs = test: Local anesthetic activity in guinea pigs (method of Bulbring and Waida), intracutaneous injection; format: in vivo
Description: 1. Local anesthetic activity
The local anesthetic activity of each of the compounds was determined in accordance with the method of Bulbring E. and Waida, Journal Pharmacol. Exp. Ther., 85, 78 (1945).

SMILES | ED50 (mice) | Local anesthetic activity in guinea pigs ED50 intracutaneous injection (guinea pigs)
CCN(CC)CCC(=O)Nc1c(C)cccc1C(C)=O | 50 mg/kg | 0.33 W/V %
CCN(CC)CC(=O)Nc1c(C)cccc1C(C)=O | 80 mg/kg | 0.12 W/V %
CCCC(=O)c1cccc(C)c1NC(=O)CCN(CC)CC | 25 mg/kg | 0.09 W/V %
CCN(CC)CC(=O)Nc1ccc(C(C)=O)cc1 | 250 mg/kg | 1.0 W/V %
CCN(CC)CC(=O)Nc1cccc(C(C)=O)c1 | 180 mg/kg | 1.0 W/V %
CCN(CC)CCC(=O)Nc1cc(C(C)=O)ccc1C | 97 mg/kg | 1.48 W/V %
